Assay results as given in patent US20240336608A1, “IL4I1 INHIBITORS AND METHODS OF USE” (Merck Sharp & Dohme LLC, priority 2023, published 2024).

Molecular target: T1, recombinant IL4I1 (Homo sapiens, UniProt Q96RQ9)
T1 construct: purchased R&D Systems 5684-AO-020
T1 sequence (Q96RQ9 22-567): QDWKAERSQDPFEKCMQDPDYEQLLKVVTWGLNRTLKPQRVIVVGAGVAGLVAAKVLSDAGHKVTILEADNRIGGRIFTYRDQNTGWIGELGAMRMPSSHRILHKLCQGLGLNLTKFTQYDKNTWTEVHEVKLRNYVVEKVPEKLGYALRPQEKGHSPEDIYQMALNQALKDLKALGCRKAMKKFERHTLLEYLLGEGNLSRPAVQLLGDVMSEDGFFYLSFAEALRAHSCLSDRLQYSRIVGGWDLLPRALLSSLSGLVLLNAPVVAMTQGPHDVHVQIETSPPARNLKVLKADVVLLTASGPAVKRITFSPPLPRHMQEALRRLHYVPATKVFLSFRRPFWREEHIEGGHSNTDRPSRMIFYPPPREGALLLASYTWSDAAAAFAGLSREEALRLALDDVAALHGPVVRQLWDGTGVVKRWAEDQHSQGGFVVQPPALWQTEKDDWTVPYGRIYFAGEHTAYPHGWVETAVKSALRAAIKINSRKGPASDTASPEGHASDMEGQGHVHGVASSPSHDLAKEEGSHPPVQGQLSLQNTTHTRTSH
Experiment: IL4I1 Enzymatic Assay (Amplex Red/HRP coupled detection of H2O2, fluorescence)
Format: biochemical
Conditions: 1 nM recombinant IL4I1; four-hour pre-incubation with compound; 1 mM each Phe, Tyr, Trp; ten-point titration
Procedure: Interleukin 4 inducible protein 1 (IL4I1) is an L-amino oxidase that catalyzes the oxidation of aromatic residues (Phe, Trp and Tyr): L-amino acid+H2O+O2→2-oxo acid+NH3+H2O2. Equal molar of H2O2 and the corresponding alpha-ketoacid are produced when IL4I1 and substrate are added. In this assay, the hydrogen peroxide generated by IL4I1 is then detected through a coupled reaction with Amplex Red (10-acetyl-3,7-dihydroxyphenoxazine) and […] (HRP) to produce Resorufin product that could be detected in the form of fluorescence signals. The assessment of the inhibitory effect of small molecules (EC50) on IL4I1 is measured by the effectiveness of the compounds to inhibit the production of H202.
Using this assay, the potency (EC50) of each compound was determined from a ten-point (1:3 serial dilution) titration curve using the following outlined procedure. To each well of a black flat-bottom Greiner (Cat #781076) 384 well-plate, 125 nL of compound (0.5% DMSO in final assay volume of 25 μL) was dispensed, followed by the addition of 12.5 μL of 1× assay buffer (50 mM Hepes 7.0 and 0.005% Tween20 (Sigma, Cat #P8341; low peroxide grade)) containing 2 nM of recombinant IL4I1 (R&D Systems, Cat #5684-AO-020). Plates were placed in an ambient temperature humidified chamber for a four-hour pre-incubation with compound. Subsequently, each reaction was initiated by the addition of 12.5 μL 1× assay buffer containing 2 mM of each aromatic amino acids (Phe/Tyr/Trp), 0.1 mM Amplex Red and 2 U/mL of HRP. The final reaction in each well of 25 μL consists of 1 nM of IL4I1, 1 mM of each residue (Phe, Tyr and Trp), 0.05 mM Amplex Red and 1 U/mL of HRP. It should be noted that the concentrations of Amplex Red and HRP used here are in excess such that the conversion of H2O2 to Resorufin product occurs instantaneously and non-rate limiting. Reactions were allowed to proceed for 120 minutes followed by fluorescence readout on a Spectramax with the following set parameters: 544 nm excitation/590 nm emission, 570 nm cutoff (EnVision is an alternative reader). Dose-response curves were generated by plotting percent effect (% inhibition; Y-axis) vs. Log10 compound concentrations (X-axis). EC50 values were calculated using a non-linear regression, four-parameters sigmoidal dose-response model and are shown in Table 16.

Row | SMILES | EC50
1 | CC(O)c1cc(C(=O)NCc2nnc(-c3ccccc3)s2)no1 (stereo not shown) [Example 3, 5-(1-hydroxyethyl)-N-[(5-phenyl-1,3,4-thiadiazol-2-yl)methyl]isoxazole-3-carboxamide] | 9 nM
2 | O=C(NCc1nnc(-c2ccccc2)s1)c1cn(CCCF)nn1 [Example 93, 1-(3-fluoropropyl)-N-((5-phenyl-1,3,4-thiadiazol-2-yl)methyl)-1H-1,2,3-triazole-4-carboxamide] | 8 nM
3 | O=C(NCc1nnc(-c2ccccc2)s1)c1cn(C2CCCCC2)nn1 [Example 95, 1-cyclohexyl-N-((5-phenyl-1,3,4-thiadiazol-2-yl)methyl)-1H-1,2,3-triazole-4-carboxamide] | 189 nM
4 | CC(C)CCn1cc(C(=O)NCc2nnc(-c3ccccc3)s2)nn1 [Example 94, 1-isopentyl-N-((5-phenyl-1,3,4-thiadiazol-2-yl)methyl)-1H-1,2,3-triazole-4-carboxamide] | 68 nM
5 | Cc1ccc(-n2cc(C(=O)NCc3ccc(-c4cccc(F)c4F)nn3)nn2)c(C)n1 [Example 117, N-((6-(2,3-difluorophenyl)pyridazin-3-yl)methyl)-1-(2,6-dimethylpyridin-3-yl)-1H-1,2,3-triazole-4-carboxamide] | 692 nM
6 | CC[C@H](c1ccc(F)cc1)n1cc(C(=O)NCc2nnc(-c3ccccc3)s2)nn1 [Example 256, (R)-1-(1-(4-fluorophenyl)propyl)-N-((5-phenyl-1,3,4-thiadiazol-2-yl)methyl)-1H-1,2,3-triazole-4-carboxamide] | 3 nM
7 | CC(C)(Cn1cc(C(=O)NCc2nnc(-c3ccccc3)s2)nn1)C(N)=O [Example 126, 1-(3-amino-2,2-dimethyl-3-oxo-propyl)-N-[(5-phenyl-1,3,4-thiadiazol-2-yl)methyl]triazole-4-carboxamide] | 843 nM
8 | Cc1cnc(-n2cc(C(=O)NCc3nnc(-c4ccccc4)s3)nn2)c(C)n1 [Example 270, 1-(3,5-dimethylpyrazin-2-yl)-N-((5-phenyl-1,3,4-thiadiazol-2-yl)methyl)-1H-1,2,3-triazole-4-carboxamide] | 20 nM
9 | O=C(NCc1nnc(-c2ccccc2)s1)c1cn(C2C[C@@H]2C(F)F)nn1 (single isomer, unassigned) [Example 143, Trans-1-(-2-(difluoromethyl)cyclopropyl]-N-[(5-phenyl-1,3,4-thiadiazol-2-yl)methyl]-1H-1,2,3-triazole-4-carboxamide] | 179 nM
10 | Cc1ccc(-n2cc(C(=O)NCc3nnc(-c4cc(F)ccc4F)s3)nn2)c(C)n1 [Example 108, N-((5-(2,5-difluorophenyl)-1,3,4-thiadiazol-2-yl)methyl)-1-(2,6-dimethylpyridin-3-yl)-1H-1,2,3-triazole-4-carboxamide] | 651 nM
11 | O=C(NCc1nnc(-c2ccccc2)s1)c1cn(CC(F)(F)C(=O)O)nn1 [Example 331, 2,2-difluoro-3-(4-(((5-phenyl-1,3,4-thiadiazol-2-yl)methyl)carbamoyl)-1H-1,2,3-triazol-1-yl)propanoic acid] | 382 nM
12 | CC(NC(=O)c1cn(CC(F)F)nn1)c1nnc(-c2ccccc2)s1 (single isomer, unassigned) [Example 251, 1-(2,2-difluoroethyl)-N-(1-(5-phenyl-1,3,4-thiadiazol-2-yl)ethyl)-1H-1,2,3-triazole-4-carboxamide] | 84 nM
13 | CC(C)c1cc(C(=O)NCc2nnc(-c3ccccc3)s2)no1 [Example 26, 5-isopropyl-N-[(5-phenyl-1,3,4-thiadiazol-2-yl)methyl]isoxazole-3-carboxamide] | 43 nM
14 | O=C(NCc1nnc(-c2ccccc2)s1)c1cn([C@@H]2COC[C@H]2CO)nn1 (stereo in doubt) [Example 147, 1-[(3S,4R)-4-(hydroxymethyl)oxolan-3-yl]-N-[(5-phenyl-1,3,4-thiadiazol-2-yl)methyl]-1H-1,2,3-triazole-4-carboxamide] | 325 nM
15 | O=C(NCc1nnc(-c2ccccc2)s1)c1cn(Cc2ccno2)nn1 [Example 154, 1-(isoxazol-5-ylmethyl)-N-((5-phenyl-1,3,4-thiadiazol-2-yl)methyl)-1H-1,2,3-triazole-4-carboxamide] | 49 nM
16 | O=C(NCc1nnc(-c2ccccc2)s1)c1cn(C2CCCOC2)nn1 (stereo not shown) [Example 177, N-((5-phenyl-1,3,4-thiadiazol-2-yl)methyl)-1-(tetrahydro-2H-pyran-3-yl)-1H-1,2,3-triazole-4-carboxamide] | 114 nM
17 | Cc1cc(C(=O)NCc2nnc(-c3ccccc3)s2)on1 [Example 25, 3-methyl-N-[(5-phenyl-1,3,4-thiadiazol-2-yl)methyl]isoxazole-5-carboxamide] | 76 nM
18 | O=C(NCc1nnc(-c2ccccc2)s1)c1cn(CC2(F)CCC2)nn1 [Example 135, 1-((1-fluorocyclobutyl)methyl)-N-((5-phenyl-1,3,4-thiadiazol-2-yl)methyl)-1H-1,2,3-triazole-4-carboxamide] | 100 nM
19 | O=C(NCc1nnc(-c2ccccc2)s1)c1cn(Cc2cc[nH]n2)nn1 [Example 156, 1-((1H-pyrazol-3-yl)methyl)-N-((5-phenyl-1,3,4-thiadiazol-2-yl)methyl)-1H-1,2,3-triazole-4-carboxamide] | 8 nM
20 | CC(C)n1cc(C(=O)NCc2nnc(-c3ccncc3)s2)nn1 [Example 269, 1-isopropyl-N-((5-(pyridin-4-yl)-1,3,4-thiadiazol-2-yl)methyl)-1H-1,2,3-triazole-4-carboxamide] | 10 nM
21 | O=C(NCc1nnc(-c2ccccc2)s1)c1cn(Cc2ccncc2)nn1 [Example 99, N-((5-phenyl-1,3,4-thiadiazol-2-yl)methyl)-1-(pyridin-4-ylmethyl)-1H-1,2,3-triazole-4-carboxamide] | 21 nM
22 | NC(=O)C(F)(F)Cn1cc(C(=O)NCc2nnc(-c3ccccc3)s2)nn1 [Example 332, 1-(3-amino-2,2-difluoro-3-oxopropyl)-N-((5-phenyl-1,3,4-thiadiazol-2-yl)methyl)-1H-1,2,3-triazole-4-carboxamide] | 8 nM
23 | COc1ccc(-n2cc(C(=O)NCc3nnc(-c4ccccc4)s3)nn2)cn1 [Example 236, 1-(6-methoxypyridin-3-yl)-N-((5-phenyl-1,3,4-thiadiazol-2-yl)methyl)-1H-1,2,3-triazole-4-carboxamide] | 12 nM
24 | CC(NC(=O)c1cn(C2CC2)nn1)c1nnc(-c2ccccc2)s1 (single isomer, unassigned) [Example 244, 1-cyclopropyl-N-(1-(5-phenyl-1,3,4-thiadiazol-2-yl)ethyl)-1H-1,2,3-triazole-4-carboxamide] | 587 nM
25 | O=C(NCc1nnc(-c2ccccc2)s1)c1cn(C2CCOC2)nn1 (stereo not shown) [Example 305, N-((5-phenyl-1,3,4-thiadiazol-2-yl)methyl)-1-(tetrahydrofuran-3-yl)-1H-1,2,3-triazole-4-carboxamide] | 29 nM
26 | CC(C#N)n1cc(C(=O)NCc2cc(-c3ccncc3)on2)nn1 (single isomer, unassigned) [Example 275, 1-(1-cyanoethyl)-N-((5-(pyridin-4-yl)isoxazol-3-yl)methyl)-1H-1,2,3-triazole-4-carboxamide] | 25 nM
27 | O=C(NCc1nnc(-c2ccccc2)s1)c1cn(CC(O)C(F)F)nn1 (single isomer, unassigned) [Example 139, 1-(3,3-difluoro-2-hydroxypropyl)-N-((5-phenyl-1,3,4-thiadiazol-2-yl)methyl)-1H-1,2,3-triazole-4-carboxamide] | 123 nM
28 | O=C(NCc1nnc(-c2ccccc2)s1)c1cn(CC2CCOC2)nn1 (stereo not shown) [Example 129, N-((5-phenyl-1,3,4-thiadiazol-2-yl)methyl)-1-((tetrahydrofuran-3-yl)methyl)-1H-1,2,3-triazole-4-carboxamide] | 124 nM
